In US12037317B2, “Synthesis of 3-hydroxybutyryl 3-hydroxybutyrate and related compounds” (Buck Institute for Research on Aging, priority 2018, dated 2024):
“Also recorded” adds a separate entry of the source.

What was measured:
[1] = ingested as a drink, compared to equivalent calories as carbohydrate; cited from earlier work
[2] = humans on a normal diet, ingested orally; cited from earlier work
[3] = system: T1, histone deacetylases (HDAC); experiment: in vitro HDAC assay (Fluor de Lys Green kit, Enzo); assay type: biochemical; conditions: sodium salt
T1 construct: other: sodium salt; Fluor de Lys Green kit; same assay as S-BHB
Protocol: (§1) The activity of S-BHB and R-BHB enantiomers in inhibiting histone deacetylases was tested. This is an in vitro HDAC assay performed using the sodium salt of S-BHB and R-BHB with a commercial assay kit, Fluor de Lys Green from Enzo.

[4] = system: histone deacetylases (HDAC); experiment: in vitro HDAC assay (Fluor de Lys Green kit, Enzo); assay type: biochemical; conditions: comparison with a different, previously published assay
Protocol: as §1

[5] = disclosed in co-owned U.S. Provisional Application No. 62/535,754; cited from earlier work

| SMILES | performance in cycling time-trial test [1] | level of ketosis [2] | inhibition of deacetylase activity (in words) [3] | maximum inhibition of HDAC activity ([3]; same assay as S-BHB) | potency for HDAC inhibition relative to published potency of R-BHB in a different assay (Shimazu et al., Science 2013) [4] | IC50 ([3]; Fluor de Lys Green kit, read-out: HDAC inhibition IC50) | serum half-life compared to the R-enantiomer [5] |
| --- | --- | --- | --- | --- | --- | --- | --- |
| C[C@@H](O)CCOC(=O)C[C@@H](C)O [R-3-hydroxybutyryl R-3-hydroxybutyrate, (R) 3-hydroxybutyryl (R) 3-hydroxy butyrate] | improved performance | ~6000 µM |  |  |  |  |  |
| C[C@@H](O)CC(=O)O [R-BHB, R-β-Hydroxybutyrate, reference compound] |  |  | partial inhibition | about 50% |  |  |  |
| C[C@H](O)CC(=O)O [S-BHB, (S)-β-hydroxybutyric acid] |  |  | even more effective than R-BHB; also recorded: dose-dependent inhibition |  | ≤ 2 fold | 7.3 mM | substantially improved |
